Earlier results as cited in patent US9266789B2, “Liquid dicyandiamide and/or alkyl thiophosphoric triamide compositions and their use in agricultural applications” (RHODIA OPERATIONS, priority 2012, dated 2016).

solubility in water: about 41 g/l
SMILES: N#CNC(=N)N [Dicyandiamide, 2-cyanoguanidine]
